“Also recorded” adds a separate entry of the source.
Experiments:
elo-5(RNAi) worms [1] = assay: GC analysis of FA composition in elo-5(RNAi) worms grown on supplemented plates; assay type: in vivo, Caenorhabditis elegans; conditions: for elongation of the supplement to C17ISO: added as food supplements; for incorporation of the supplement into lipids and its elongation (GC): elo-5(RNAi) worms on supplemented plates
Method: A mixed population of well-fed worms were washed off the plates with water, rinsed 3-4 times, and, after aspirating away water, were frozen at −80° C. Fatty Acid Methyl Esters and lipid extraction were performed as described (Miquel and Browse 1992). GC was performed on the HP6890N (Agilent) equipped with a DB-23 column (30 m×250 μm×0.25 μm) (Kniazeva, Sieber et al. 2003). Each experiment was repeated at least five times. Average values and standard deviations were then calculated for each of the compounds in the experiments.
(§1) Ninety μl of the 4 mM solution of FA (Sigma) in 1% NP40 or 10% DMSO was dropped on the side of the bacterial lawn that contained either elo-5 dsRNA-producing plasmid or the control HT115 vector. Two synchronized young adults were plated and their progeny was scored 4 and 5 days later. Each experiment was performed in at least 30 replicates. For recovering elo-5(RNAi) worms from L1 arrest, wild type adults were placed on the elo-5(RNAi) plates. Four days later, their progeny was removed and eggs of the next generation were left on the plates. Hatched L1 were kept for two or four days before transferring as agar chunks to new elo-5(RNAi) plates. FA supplements were added to spots next to the chunks. Ten plates were prepared for each FA supplement. Control plates contained no supplements. […] Neither C15 nor C17 mmBCFA added to let-418(RNAi) plates modified the expected phenotype.

elo-5(RNAi) worms [2] = assay: Phenotype rescue of elo-5(RNAi) worms using FA supplements; assay type: in vivo, Caenorhabditis elegans; conditions: for plates on which the supplement rescued the elo-5 RNAi defects: FA supplement (90 μl of 4 mM) on elo-5(RNAi) plates, progeny scored 4 and 5 days later, rescued/total plates; for rescue of mmBCFA deficiency: added as food supplements; for plates with partial rescue of the elo-5 RNAi defects: FA supplement on elo-5(RNAi) plates, partially rescued/total plates; for rescue of elo-5(RNAi) phenotype: animals grown on elo-5 RNAi plates with supplement or mmBCFA-producing bacteria
Method: The RNAi feeding strain was E. coli HT115 transformed with either empty pPD129.36 vector (controls) or with dsRNA-producing constructs. Unless stated differently, wild type N2 Bristol animals were plated as synchronized adults.
Ninety μl of the 4 mM solution of FA (Sigma) in 1% NP40 or 10% DMSO was dropped on the side of the bacterial lawn that contained either elo-5 dsRNA-producing plasmid or the control HT115 vector. Two synchronized young adults were plated and their progeny was scored 4 and 5 days later. Each experiment was performed in at least 30 replicates. For recovering elo-5(RNAi) worms from L1 arrest, wild type adults were placed on the elo-5(RNAi) plates. Four days later, their progeny was removed and eggs of the next generation were left on the plates. Hatched L1 were kept for two or four days before transferring as agar chunks to new elo-5(RNAi) plates. FA supplements were added to spots next to the chunks. Ten plates were prepared for each FA supplement. Control plates contained no supplements.

elo-5(gk208) = assay: Rescue, growth and maturation of the elo-5(gk208) mutant on supplemented plates; assay type: in vivo, C. elegans
[3] = Elongation of exogenous short chain mmBCFA in cultured human cells; assay type: cell-based
mouse C2C12 (myoblasts) = assay: Elongation of exogenous short chain mmBCFA in cultured mouse cells; assay type: cell-based
N2 = assay: Growth and maturation of wild type N2 on supplemented plates; assay type: in vivo, C. elegans
human cancer = conditions: Yang, Liu et al. 2000; cited from earlier work
[4] = tested on: elo-5(RNAi) L1-arrested worms; assay: Recovery of elo-5(RNAi) worms from L1 arrest with FA supplements; assay type: in vivo, Caenorhabditis elegans
Method: as §1

lpd-1(RNAi) animals = assay: Rescue of lpd-1(RNAi) feeding defects by supplement; assay type: in vivo, C. elegans; conditions: supplement added to the plates
[5] = tested on: mmBCFA deficient early L1 larvae; assay: Feeding of mmBCFA deficient early L1 larvae on plates without bacteria; assay type: in vivo, C. elegans; conditions: supplements on the plates without bacteria

Q: With `COC(=O)CCCCCCCCCC(C)C` [C13ISO-methyl ester] as the compound, how does the “elongation of the supplement to C17ISO” value (elo-5(RNAi) worms [1]) read?
A: can be efficiently elongated to C17ISO

Q: What does the source list for `CC(C)CCCCCCCCCC(=O)O` [C13ISO]?
A: plates on which the supplement rescued the elo-5 RNAi defects (elo-5(RNAi) worms [2]): 0/30; rescue of mmBCFA deficiency (elo-5(RNAi) worms [2]): rescue mmBCFA deficiency; egg laying and survival on the second day of adulthood (elo-5(gk208); elo-5(gk208), 0.75 mM and 1 mM): fail to lay eggs and die a few days later; growth rate (elo-5(gk208); elo-5(gk208), 0.75 mM and 1 mM): grow as fast as N2 without supplements; developmental stage on forth day after hatching (elo-5(gk208); elo-5(gk208), 10 mM): remain at L4 or young adults stages; effect on growth and maturation (elo-5(gk208); elo-5(gk208), 2.5-10 mM): slowing at the L4 stage accompanied by a delay in the adult maturation; brood size (elo-5(gk208); elo-5(gk208), high concentrations (2.5-10 mM)): maintain wild type brood size; animals that reach adulthood and have viable progeny (elo-5(gk208); supplement concentration above 0.75 mM): 100%; rescue from elo-5(gk208) phenotype (elo-5(gk208); supplement concentration range 0-0.5 mM): no rescue; also recorded: does not rescue; elongation into C15ISO and C17ISO in vitro ([3]; RIN-M5F (pancreatic beta cells)): able to elongate; elongation into C15ISO and C17ISO in vitro ([3]; SY-5Y (neuroblastoma)): able to elongate; elongation into C15ISO and C17ISO in vitro (mouse C2C12 (myoblasts)): able to elongate; growth rate (N2; N2, 0.75 mM and 1 mM): grow as fast as N2 without supplements; developmental stage on forth day after hatching (N2; N2, 10 mM): remain at L4 or young adults stages; effect on growth and maturation (N2; N2, 2.5-10 mM): slowing at the L4 stage accompanied by a delay in the adult maturation; brood size (N2; N2, high concentrations (2.5-10 mM)): maintain wild type brood size; ability to modulate growth rate between L4 and adult stage (N2; dietary supplement): modulate growth rate between L4 and adult stage

Q: With `CC(C)CCCCCCCCCCCC(=O)O` [C15ISO, 13-methyl myristic acid] as the compound, how does the “plates with partial rescue of the elo-5 RNAi defects” value (elo-5(RNAi) worms [2]) read?
A: 23/38

Q: And the “rescue of mmBCFA deficiency” value (elo-5(RNAi) worms [2])?
A: rescue mmBCFA deficiency

Q: What about the “rescue of elo-5(RNAi) phenotype” value (elo-5(RNAi) worms [2]) of the same compound?
A: partially rescued

Q: And the “incorporation of the supplement into lipids and its elongation (GC)” value (“incorporation” for short) (elo-5(RNAi) worms [1])?
A: no accumulation of C15ISO or its elongation to C17ISO was detectable

Q: What about the “effect on human cancer” value (human cancer) of the same compound?
A: growth inhibitor of human cancer where it selectively induces apoptosis

Q: For `COC(=O)CCCCCCCCCCCC(C)C` [C15ISO-methyl ester], which “elongation of the supplement to C17ISO” value (elo-5(RNAi) worms [1]) is on record?
A: can be efficiently elongated to C17ISO

Q: For `CCC(C)CCCCCCCCCCC(=O)O` (stereo not shown) [C15anteISO], which “plates with partial rescue of the elo-5 RNAi defects” value (elo-5(RNAi) worms [2]) is on record?
A: 20/28

Q: Which “plates on which the supplement rescued the elo-5 RNAi defects” value (elo-5(RNAi) worms [2]) does the source give for `CCCCCCCCCCCCCCCC(=O)O` [C16:0, palmitic acid, reference compound] here?
A: 0/30

Q: With `CCCCCC/C=C\CCCCCCCC(=O)O` [C16:1 n7, reference compound] as the compound, how does the “plates on which the supplement rescued the elo-5 RNAi defects” value (elo-5(RNAi) worms [2]) read?
A: 0/30

Q: For `CCCCCCCCCCCCCCCCC(=O)O` [C17:0, reference compound], which “plates on which the supplement rescued the elo-5 RNAi defects” value (elo-5(RNAi) worms [2]) is on record?
A: 0/30

Q: Which “plates on which the supplement rescued the elo-5 RNAi defects” value (elo-5(RNAi) worms [2]) does the source give for `CC(C)CCCCCCCCCCCCCC(=O)O` [C17ISO, 15-methyl hexadecanoic acid] here?
A: 52/60

Q: What about the “rescue of mmBCFA deficiency” value (elo-5(RNAi) worms [2]) of the same compound?
A: rescue mmBCFA deficiency

Q: And the “rescue of elo-5(RNAi) phenotype” value (elo-5(RNAi) worms [2])?
A: fully rescued

Q: What about the “arrested L1 rescued to full growth and proliferation” value (from here on “arrested L1 rescued”) ([4]; four-day-old L1) of the same compound?
A: ~1%

Q: And the “arrested L1 rescued” value ([4]; two day-arrested L1)?
A: about 50%

Q: And the “incorporation” value (elo-5(RNAi) worms [1])?
A: significantly incorporated into lipids

Q: And the “growth of homozygous elo-5(gk208) on supplemented plates” value (elo-5(gk208); plates supplemented or seeded)?
A: grew normally; also recorded: grew without any obvious morphological defects

Q: What about the “rescue of lpd-1 RNAi feeding defects (slow growth, morphological abnormalities, egg-laying defects)” value (lpd-1(RNAi) animals) of the same compound?
A: did not significantly rescue these defects

Q: What about the “development of early L1 arrested larvae” value [5] of the same compound?
A: able to elongate and proceed to the mid-L1 stage

Q: Which “plates on which the supplement rescued the elo-5 RNAi defects” value (elo-5(RNAi) worms [2]) does the source give for `CCC(C)CCCCCCCCCCCCC(=O)O` (stereo not shown) [C17anteISO, 14-methyl hexadecanoic acid] here?
A: 58/60

Q: What about the “rescue of elo-5(RNAi) phenotype” value (elo-5(RNAi) worms [2]) of the same compound?
A: fully rescued

Q: And the “arrested L1 rescued” value ([4]; four-day-old L1)?
A: ~1%

Q: And the “arrested L1 rescued” value ([4]; two day-arrested L1)?
A: about 50%

Q: What about the “incorporation” value (elo-5(RNAi) worms [1]) of the same compound?
A: significantly incorporated into lipids

Q: For `CCCCC/C=C\C/C=C\C/C=C\CCCCC(=O)O` [C18:3 n6, reference compound], which “plates on which the supplement rescued the elo-5 RNAi defects” value (elo-5(RNAi) worms [2]) is on record?
A: 0/30

Q: Which “plates on which the supplement rescued the elo-5 RNAi defects” value (elo-5(RNAi) worms [2]) does the source give for `CC(C)CCCCCCCCCCCCCCC(=O)O` [C18ISO, reference compound] here?
A: 0/30

Q: Which “plates on which the supplement rescued the elo-5 RNAi defects” value (elo-5(RNAi) worms [2]) does the source give for `CC(C)CCCCCCCCCCCCCCCC(=O)O` [C19ISO, reference compound] here?
A: 0/30

Q: With `CC(C)CCCC(C)CCCC(C)CCCC(C)CC(=O)O` (stereo not shown) [phytanic acid, reference compound] as the compound, how does the “plates on which the supplement rescued the elo-5 RNAi defects” value (elo-5(RNAi) worms [2]) read?
A: 0/30

From US20080214666A1, “Products and Methods Related to Mono-Methyl Branched-Chain Fatty Acids” (The Regents of the University of Colorado, priority 2004, published 2008)
